In US20060128695A1, “Cyclic nucleotide phosphodiesterase inhibitors, preparation and uses” (NEURO3D, priority 2002, published 2006):

Key:
Assay type in all cases: biochemical, bovine
PDE2 = biological target: T1, PDE2 (Bos taurus, UniProt P14099); assay: Inhibition of PDE2, radioenzymatic phosphodiesterase assay
T1 construct: PDE2 was prepared from bovine endothelial cells by the same methods; endogenous in cells; host or cells: bovine endothelial cells
T1 sequence (P14099 1-921): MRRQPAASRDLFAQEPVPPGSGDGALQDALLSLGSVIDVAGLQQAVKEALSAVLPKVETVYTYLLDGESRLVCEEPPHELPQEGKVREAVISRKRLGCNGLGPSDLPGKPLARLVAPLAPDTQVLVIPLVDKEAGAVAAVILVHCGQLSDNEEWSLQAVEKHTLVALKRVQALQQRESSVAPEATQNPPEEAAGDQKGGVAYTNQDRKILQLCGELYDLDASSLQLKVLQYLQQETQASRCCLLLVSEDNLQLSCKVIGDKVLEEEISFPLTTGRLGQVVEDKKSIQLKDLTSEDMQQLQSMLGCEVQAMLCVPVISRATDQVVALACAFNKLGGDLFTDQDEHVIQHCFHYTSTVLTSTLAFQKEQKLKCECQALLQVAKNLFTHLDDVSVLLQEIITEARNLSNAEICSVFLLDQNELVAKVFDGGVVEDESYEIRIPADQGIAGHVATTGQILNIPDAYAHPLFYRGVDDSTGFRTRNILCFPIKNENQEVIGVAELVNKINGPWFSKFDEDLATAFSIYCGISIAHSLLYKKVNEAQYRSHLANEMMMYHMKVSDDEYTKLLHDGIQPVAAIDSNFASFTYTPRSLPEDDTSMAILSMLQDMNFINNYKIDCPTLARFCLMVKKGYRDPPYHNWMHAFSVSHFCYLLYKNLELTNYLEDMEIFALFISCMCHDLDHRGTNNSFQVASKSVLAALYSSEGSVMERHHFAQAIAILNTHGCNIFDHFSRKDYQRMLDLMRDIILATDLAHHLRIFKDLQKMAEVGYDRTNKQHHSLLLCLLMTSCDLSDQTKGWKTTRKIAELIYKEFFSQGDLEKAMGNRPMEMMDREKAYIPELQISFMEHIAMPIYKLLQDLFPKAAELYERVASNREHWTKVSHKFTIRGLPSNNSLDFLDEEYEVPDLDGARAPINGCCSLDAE

PDE1 = assay: Selectivity: inhibition of PDE1, radioenzymatic phosphodiesterase assay; conditions: 10 μM test compound; vascular smooth muscle
Description: (§1) A 3 g segment of bovine aortic media cut into pieces with scissors was homogenized with an ultra-turrax then a potter glass/glass homogenizer in 7 volumes by weight of buffer A containing a protease inhibitor cocktail (20 mM Tris-HCl, 0.25 M saccharose, 2 mM magnesium acetate, 1 mM dithiothreitol, 5 mM EGTA, 2000 U/ml aprotinin, 10 mg/l leupeptin and 10 mg/l soya trypsic inhibitor). The homogenizate was centrifuged at 105,000 g for 1 hour. The supernatant was loaded on a DEAE-Sephacel column (15 x 1.6 cm) pre-equilibrated with buffer B (buffer A without the saccharose, EGTA and protease inhibitors). The column was washed until there was no detectable absorption at 280 nm, then eluted with a linear gradient of NaCl (0-0.5 M) in buffer B. 3-ml fractions were collected and enzyme activity was determined under the conditions described hereinbelow to localize the different enzymes PDE1, PDE3, PDE4 and PDE5 which were aliquoted and frozen at −80° C. (Lugnier et al., Biochem. Phamacol., 1986, 35: 1746-1751). PDE2 was prepared from bovine endothelial cells by the same methods (Lugnier and Schini, Biochem. Pharmacol., 1990, 39: 75-84).
(§2) Cyclic nucleotide phosphodiesterase activity was determined by a radioenzymatic method using tritium-labelled cyclic GMP or AMP (1 μM) as substrate (Lugnier et al., 1986). ^3H-labelled adenosine or guanosine monophosphate formed by hydrolysis of the radiolabelled cyclic nucleotide was then converted to ^3H-labelled adenosine or guanosine in a second reaction with […] in excess. The nucleoside formed was separated from the nucleotides by anion exchange chromatography. Nucleoside radioactivity was determined by liquid scintillation counting. […]
(§3) The activity of the compounds was evaluated on other phosphodiesterase isoforms, particularly basal state or calmodulin-activated PDEl from vascular smooth muscle, PDE3, PDE4 and PDE5 from vascular smooth muscle.
(§4) The results obtained are presented in Tables 1 and 2 hereinbelow and are expressed as the percentage inhibition of enzymatic activity produced by […] of the test compound.

PDE3 = biological target: T2, PDE3 (Bos taurus, UniProt A0A3Q1M1E8); assay: Selectivity: inhibition of PDE3, radioenzymatic phosphodiesterase assay; conditions: 10 μM test compound; vascular smooth muscle; read-out: PDE3 percentage inhibition at 10 μM
T2 sequence (A0A3Q1M1E8 1-1126): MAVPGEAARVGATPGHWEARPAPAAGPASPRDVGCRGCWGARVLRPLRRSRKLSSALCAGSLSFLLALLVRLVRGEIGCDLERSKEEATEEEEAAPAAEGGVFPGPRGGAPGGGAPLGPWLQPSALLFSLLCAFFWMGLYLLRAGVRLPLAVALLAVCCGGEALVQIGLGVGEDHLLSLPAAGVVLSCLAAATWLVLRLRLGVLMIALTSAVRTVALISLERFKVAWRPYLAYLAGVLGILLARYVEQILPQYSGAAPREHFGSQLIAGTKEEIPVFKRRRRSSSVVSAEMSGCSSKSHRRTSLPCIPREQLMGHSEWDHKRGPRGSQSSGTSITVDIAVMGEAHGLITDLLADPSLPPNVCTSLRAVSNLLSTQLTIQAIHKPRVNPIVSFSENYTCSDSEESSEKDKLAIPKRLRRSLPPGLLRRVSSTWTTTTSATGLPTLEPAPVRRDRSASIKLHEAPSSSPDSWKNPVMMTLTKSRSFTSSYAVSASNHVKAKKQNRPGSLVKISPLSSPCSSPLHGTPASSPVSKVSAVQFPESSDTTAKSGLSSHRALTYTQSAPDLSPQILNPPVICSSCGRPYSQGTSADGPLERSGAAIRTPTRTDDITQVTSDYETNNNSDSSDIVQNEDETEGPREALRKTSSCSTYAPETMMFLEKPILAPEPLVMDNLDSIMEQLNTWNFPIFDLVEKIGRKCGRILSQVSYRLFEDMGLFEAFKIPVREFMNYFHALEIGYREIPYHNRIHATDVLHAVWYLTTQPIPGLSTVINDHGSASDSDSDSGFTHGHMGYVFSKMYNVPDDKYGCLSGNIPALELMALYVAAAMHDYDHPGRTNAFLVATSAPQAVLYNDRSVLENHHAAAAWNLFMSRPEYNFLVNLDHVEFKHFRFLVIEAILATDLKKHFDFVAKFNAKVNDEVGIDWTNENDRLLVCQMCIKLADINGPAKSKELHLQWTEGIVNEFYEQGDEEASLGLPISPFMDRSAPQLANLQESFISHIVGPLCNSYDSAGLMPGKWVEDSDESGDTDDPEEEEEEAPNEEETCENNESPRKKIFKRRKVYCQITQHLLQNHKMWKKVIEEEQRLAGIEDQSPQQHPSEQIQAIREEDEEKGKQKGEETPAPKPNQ
Description: as §1, §2, §3, §4

PDE4 = assay: Selectivity: inhibition of PDE4, radioenzymatic phosphodiesterase assay; conditions: 10 μM test compound; vascular smooth muscle
Description: as §1
(§5) Cyclic nucleotide phosphodiesterase activity was determined by a radioenzymatic method using tritium-labelled cyclic GMP or AMP (1 μM) as substrate (Lugnier et al., 1986). ^3H-labelled adenosine or guanosine monophosphate formed by hydrolysis of the radiolabelled cyclic nucleotide was then converted to ^3H-labelled adenosine or guanosine in a second reaction with […] in excess. The nucleoside formed was separated from the nucleotides by anion exchange chromatography. Nucleoside radioactivity was determined by liquid scintillation counting. Enzymatic incubations were carried out under conditions allowing no more than 15% hydrolysis of the substrate; each point was performed in duplicate.
as §3, §4

PDE5 = biological target: T3, PDE5 (Bos taurus, UniProt Q28156); assay: Selectivity: inhibition of PDE5, radioenzymatic phosphodiesterase assay; conditions: 10 μM test compound; vascular smooth muscle; read-out: PDE5 percentage inhibition at 10 μM
T3 construct: localize the different enzymes PDE1, PDE3, PDE4 and PDE5 which were aliquoted and frozen; from tissue; host or cells: bovine aortic media (vascular smooth muscle)
Description: as §1, §5, §3, §4

Question: Which results are given for `COc1cc2c(cc1OC)N(C)C(=O)CN=C2c1cccc(C(F)(F)F)c1` [Compound 4p, 7,8-dimethoxy-1-methyl-[5-(3-trifluoromethyl)phenyl]-1,3-dihydro-2H-1,4-benzodiazepin-2-one]?
Answer: IC50 (PDE2): 1.8 µM; PDE1 percentage inhibition at 10 μM (PDE1): 25%; inhibition at 10 µM (PDE3): 58%; PDE4 percentage inhibition at 10 μM (PDE4): 19%; inhibition at 10 µM (PDE5): 26%

Question: For `COc1cc2c(c(Br)c1OC)C(c1cccc(C(N)=O)c1)=NCC(=O)N2C` [Compound 5b, 3-(6-bromo-7,8-dimethoxy-1-methyl-2-oxo-2,3-dihydro-1H-1,4-benzodiazepin-5-yl)benzamide], which IC50 (PDE2) is on record?
Answer: 2.1 µM

Question: What about the inhibition at 10 µM (PDE5) of the same compound?
Answer: 21.6%

Question: How did the IC50 (PDE2) turn out when `COc1cc2c(cc1OC)N(C)C(=O)CN=C2c1cccnc1` [Compound 17b, 7,8-dimethoxy-1-methyl-5-(3-pyridyl)-1,3-dihydro-1,4-benzodiazepin-2-one] was run?
Answer: 1.5 µM

Question: What about the “PDE1 percentage inhibition at 10 μM” value (PDE1) of the same compound?
Answer: 10%

Question: And the inhibition at 10 µM (PDE3)?
Answer: 36%

Question: And the “PDE4 percentage inhibition at 10 μM” value (PDE4)?
Answer: 8%

Question: What about the inhibition at 10 µM (PDE5) of the same compound?
Answer: 14%
